Results from ChEMBL document CHEMBL4308841, “Synthesis, in vitro antiproliferative activity, and kinase inhibitory effects of pyrazole-containing diarylureas and diarylamides” (Eur J Med Chem, 2018).

Legend:
HL-60(TB) [1] = experiment: Growth inhibition of human HL-60(TB) cells incubated for 48 hrs by sulforhodamine B assay; format: functional, cell-based; conditions: HL-60, 48 h
SR [2] = experiment: Growth inhibition of human SR cells incubated for 48 hrs by sulforhodamine B assay; format: functional, cell-based
LOX IMVI = experiment: Growth inhibition of human LOXIMVI cells incubated for 48 hrs by sulforhodamine B assay; format: functional
M14 = experiment: Growth inhibition of human M14 cells incubated for 48 hrs by sulforhodamine B assay; format: functional, cell-based; conditions: M14, 48 h
SK-MEL-5 = experiment: Growth inhibition of human SK-MEL-5 cells incubated for 48 hrs by sulforhodamine B assay; format: functional, cell-based; conditions: SK-MEL-5, 48 h
IGROV-1 = experiment: Growth inhibition of human IGROV1 cells incubated for 48 hrs by sulforhodamine B assay; format: functional, cell-based; conditions: IGROV-1, 48 h
ACHN = experiment: Growth inhibition of human ACHN cells incubated for 48 hrs by sulforhodamine B assay; format: functional, cell-based
CAKI-1 = experiment: Growth inhibition of human Caki1 cells incubated for 48 hrs by sulforhodamine B assay; format: functional, cell-based; conditions: CAKI-1, 48 h
HOP-62 [3] = experiment: Growth inhibition of human HOP62 cells assessed as cell growth at 0.01 uM incubated for 48 hrs by sulforhodamine B assay relative to control; format: functional; conditions: HOP-62, 48 h, read-out: Activity
SNB-19 = experiment: Growth inhibition of human SNB19 cells assessed as cell growth at 0.01 uM incubated for 48 hrs by sulforhodamine B assay relative to control; format: functional; conditions: SNB-19, 48 h, read-out: Activity
U-251 = experiment: Growth inhibition of human U251 cells assessed as cell growth at 0.01 uM incubated for 48 hrs by sulforhodamine B assay relative to control; format: functional; conditions: U-251, 48 h, read-out: Activity
MDA-MB-231 [4] = experiment: Growth inhibition of human MDA-MB-231 cells assessed as cell growth at 0.01 uM incubated for 48 hrs by sulforhodamine B assay relative to control; format: functional; conditions: MDA-MB-231, 48 h, read-out: Activity
HCC 2998 = experiment: Growth inhibition of human HCC2998 cells assessed as cell growth at 0.1 uM incubated for 48 hrs by sulforhodamine B assay relative to control; format: functional; conditions: HCC 2998, 48 h, read-out: Activity
OVCAR-5 = experiment: Growth inhibition of human OVCAR5 cells assessed as cell growth at 0.1 uM incubated for 48 hrs by sulforhodamine B assay relative to control; format: functional; conditions: OVCAR-5, 48 h, read-out: Activity
MDA-MB-231 [5] = experiment: Growth inhibition of human MDA-MB-231 cells assessed as cell growth at 0.1 uM incubated for 48 hrs by sulforhodamine B assay relative to control; format: functional; conditions: MDA-MB-231, 48 h, read-out: Activity
K562 = experiment: Growth inhibition of human K562 cells assessed as cell growth at 1 uM incubated for 48 hrs by sulforhodamine B assay relative to control; format: functional; conditions: K562, 48 h, read-out: Activity
NCI-H23 = experiment: Growth inhibition of human NCI-H23 cells assessed as cell growth at 1 uM incubated for 48 hrs by sulforhodamine B assay relative to control; format: functional; conditions: NCI-H23, 48 h, read-out: Activity
HT-29 = experiment: Growth inhibition of human HT-29 cells assessed as cell growth at 1 uM incubated for 48 hrs by sulforhodamine B assay relative to control; format: functional; conditions: HT-29, 48 h, read-out: Activity
SF-539 = experiment: Growth inhibition of human SF539 cells assessed as cell growth at 1 uM incubated for 48 hrs by sulforhodamine B assay relative to control; format: functional; conditions: SF-539, 48 h, read-out: Activity
Malme-3M = experiment: Growth inhibition of human MALME-3M cells assessed as cell growth at 1 uM incubated for 48 hrs by sulforhodamine B assay relative to control; format: functional; conditions: read-out: Activity
UACC-257 = experiment: Growth inhibition of human UACC257 cells assessed as cell growth at 1 uM incubated for 48 hrs by sulforhodamine B assay relative to control; format: functional; conditions: UACC-257, 48 h, read-out: Activity
HL-60(TB) [6] = experiment: Growth inhibition of human HL-60(TB) cells assessed as cell growth at 100 uM incubated for 48 hrs by sulforhodamine B assay relative to control; format: functional; conditions: HL-60, 48 h, read-out: Activity
MOLT-4 = experiment: Growth inhibition of human MOLT4 cells assessed as cell growth at 100 uM incubated for 48 hrs by sulforhodamine B assay relative to control; format: functional; conditions: MOLT-4, 48 h, read-out: Activity
SR [7] = experiment: Growth inhibition of human SR cells assessed as cell growth at 100 uM incubated for 48 hrs by sulforhodamine B assay relative to control; format: functional; conditions: read-out: Activity
HOP-62 [8] = experiment: Growth inhibition of human HOP62 cells assessed as cell growth at 100 uM incubated for 48 hrs by sulforhodamine B assay relative to control; format: functional; conditions: HOP-62, 48 h, read-out: Activity
SF-295 = experiment: Growth inhibition of human SF295 cells assessed as cell growth at 100 uM incubated for 48 hrs by sulforhodamine B assay relative to control; format: functional; conditions: SF-295, 48 h, read-out: Activity
MDA-MB-435 = experiment: Growth inhibition of human MDA-MB-435 cells assessed as cell growth at 100 uM incubated for 48 hrs by sulforhodamine B assay relative to control; format: functional; conditions: MDA-MB-435, 48 h, read-out: Activity
OVCAR-8 = experiment: Growth inhibition of human OVCAR8 cells assessed as cell growth at 100 uM incubated for 48 hrs by sulforhodamine B assay relative to control; format: functional; conditions: OVCAR-8, 48 h, read-out: Activity
[9] = read-out: LC50 (the source's name)
[10] = read-out: pLC50 (the source's name) (converted)

O=C(Nc1cccc(-n2cc(-c3ccncc3)c(-c3cc(O)cc(Cl)c3)n2)c1)Nc1ccc(Cl)c(C(F)(F)F)c1
GI50 (HL-60(TB) [1]; read-out: GI50): 2.56 µM | LC50 (HL-60(TB) [1]; read-out: LC50): > 100 µM | TGI (HL-60(TB) [1]; read-out: TGI): 66.2 µM | GI50 (HL-60(TB) [1]; read-out: pGI50 (converted)): 2.88 µM | LC50 (HL-60(TB) [1]; read-out: pLC50 (converted)): > 100 µM | TGI (HL-60(TB) [1]; read-out: pTGI (converted)): 6.61 µM | GI50 (SR [2]; read-out: GI50): 2.01 µM | CC50 (SR [2]; [9]): > 100 µM | TGI (SR [2]; read-out: TGI): 51 µM | GI50 (SR [2]; read-out: pGI50 (converted)): 2 µM | CC50 (SR [2]; [10]): > 100 µM | TGI (SR [2]; read-out: pTGI (converted)): 5.13 µM | GI50 (LOX IMVI; read-out: GI50): 1.97 µM | CC50 (LOX IMVI; [9]): 95.5 µM | TGI (LOX IMVI; read-out: TGI): 43.6 µM | GI50 (LOX IMVI; read-out: pGI50 (converted)): 1.95 µM | CC50 (LOX IMVI; [10]): 9.55 µM | TGI (LOX IMVI; read-out: pTGI (converted)): 4.37 µM | GI50 (M14; read-out: GI50): 1.72 µM | CC50 (M14; [9]): 55.8 µM | TGI (M14; read-out: TGI): 38.8 µM | GI50 (M14; read-out: pGI50 (converted)): 1.7 µM | CC50 (M14; [10]): 8.71 µM | TGI (M14; read-out: pTGI (converted)): 3.89 µM | GI50 (SK-MEL-5; read-out: GI50): 1.59 µM | CC50 (SK-MEL-5; [9]): 51.5 µM | TGI (SK-MEL-5; read-out: TGI): 32.3 µM | GI50 (SK-MEL-5; read-out: pGI50 (converted)): 1.7 µM | CC50 (SK-MEL-5; [10]): 6.17 µM | TGI (SK-MEL-5; read-out: pTGI (converted)): 3.24 µM | GI50 (IGROV-1; read-out: GI50): 3.81 µM | CC50 (IGROV-1; [9]): > 100 µM | TGI (IGROV-1; read-out: TGI): 12.6 µM | GI50 (IGROV-1; read-out: pGI50 (converted)): 3.8 µM | CC50 (IGROV-1; [10]): > 100 µM | TGI (IGROV-1; read-out: pTGI (converted)): 12.6 µM | GI50 (ACHN; read-out: GI50): 3.1 µM | CC50 (ACHN; [9]): > 100 µM | TGI (ACHN; read-out: TGI): 15.3 µM | GI50 (ACHN; read-out: pGI50 (converted)): 3.09 µM | CC50 (ACHN; [10]): > 100 µM | TGI (ACHN; read-out: pTGI (converted)): 15.1 µM | GI50 (CAKI-1; read-out: GI50): 2.53 µM | CC50 (CAKI-1; [9]): > 100 µM | TGI (CAKI-1; read-out: TGI): 78.7 µM | GI50 (CAKI-1; read-out: pGI50 (converted)): 2.69 µM | CC50 (CAKI-1; [10]): > 100 µM | TGI (CAKI-1; read-out: pTGI (converted)): 7.94 µM | growth at 0.01 µM (HOP-62 [3]): 99% | growth at 0.01 µM (SNB-19): 95% | growth at 0.01 µM (U-251): 97% | growth at 0.01 µM (MDA-MB-231 [4]): 105% | growth at 0.1 µM (HCC 2998): 97% | growth at 0.1 µM (OVCAR-5): 91% | growth at 0.1 µM (MDA-MB-231 [5]): 105% | growth at 1 µM (K562): 55% | growth at 1 µM (NCI-H23): 96% | growth at 1 µM (HT-29): 99% | growth at 1 µM (SF-539): 91% | growth at 1 µM (Malme-3M): 94% | growth at 1 µM (UACC-257): 58% | growth at 100 µM (HL-60(TB) [6]): -15% | growth at 100 µM (MOLT-4): -39% | growth at 100 µM (SR [7]): -40% | growth at 100 µM (HOP-62 [8]): -12% | growth at 100 µM (SF-295): -80% | growth at 100 µM (MDA-MB-435): -93% | growth at 100 µM (OVCAR-8): -52%
